Entries after “also recorded” stand apart in the source; their conditions may differ.
How the values were obtained:
SK-N-SH cells [1] = experiment: Cell viability assay (CCK-8); format: cell-based; conditions: for SK-N-SH cells dead: 80 μM, 24 h incubation; for cytotoxicity (cell viability): SK-N-SH, concentration up to 40 μM
Procedure: However, we still face challenges to improve their therapeutic effects while reducing neurotoxicity. Therefore, a systematic investigation on the cytotoxicity of our new synthetic compounds was carried out. Herein, human neuroblastoma cells (SK-N-SH) were utilized for standard cell viability assay (Cell Counting Kit-8 [CCK-8] assay).
The human neuroblastoma cell (SK-N-SH) was obtained from the Chinese Academy of Sciences stem cell bank. Cells were maintained in Dulbecco’s modified Eagle’s medium (DMEM) supplemented with 10% fetal bovine serum (FBS), 100 U/ml penicillin G, and 100 μg/ml streptomycin at 37 °C in a humidified atmosphere containing 5% CO2.
Cells were plated in 96-well plate at a density of 1 × 10^4 in 100 μl medium per well for 24 h. Then, the FBS-free medium containing the tested compounds at different concentrations was used to replace the old medium. After 24 h incubation, 100 μl of FBS-free DMEM containing 10% CCK-8 was added into each well to replace the old medium. After 2 h incubation, the absorbance at 450 nm was measured by SpectraMax iD3 (Molecular Devices).

SK-N-SH cells [2] = experiment: Cell rescue assay (CCK-8) against R3 aggregates / Cu2+; format: cell-based, human; conditions: R3, heparin, Cu2+ preincubated with compound (20 μM), diluted 1:1, 24 h
Procedure: In this regard, we next evaluated the detoxification effect of 4GA and 2GA in the SK-N-SH cells treated with different components with possible cytotoxicity, including R3, R3 aggregates (R3 + heparin), Cu^2+, 4GA, 2GA, GA, and 4ME in indicated conditions, as shown in Figure 6B.
For cell rescue assay, 30 μM R3, 7.5 μM heparin was incubated in FBS–DMEM containing 7.5 μM Cu^2+ and different compounds (20 μM) at 37 °C for 1 h. Then, 500 μl of preincubated R3 solution was diluted with 500 μl fresh FBS–DMEM, and the mixture was used to replace the old medium after the cell attached to the 96-well plate. After cultured for 24 h, CCK-8 was used to measure the cell viability.

R3 fibrils = molecular target: T1, R3 fibrils (Homo sapiens, UniProt P10636); experiment: TEM of heparin-induced R3 fibrils; format: biochemical
T1 construct: R3 (^306VQIVYK PVDLSK VTSKCG SLGNIH HKPGGG Q^336) and rabbit anti-tau antibody were purchased from MuJin; purchased MuJin
T1 sequence (P10636 623-653 limits assumed): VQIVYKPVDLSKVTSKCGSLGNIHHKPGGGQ
Procedure: To further confirm the inhibitory efficiency of 4GA and 2GA on R3 fibril formation, the morphology of heparin-induced R3 aggregates at different conditions was characterized by transmission electron microscopy (TEM) (Fig. 4C). After incubation, the mature fibrils of R3 were interweaved and serried in the absence of 4GA or 2GA (0 μM).
For detecting the inhibitory efficiency of inhibitors, 15 μM R3, 3.8 μM heparin, and 4GA/2GA/4ME/GA (0, 10, and 40 μM) in 50 mM Tris–HCl buffer (pH 7.4) was incubated at 37 °C for 3 h, respectively. For exploring the effect of Cu^2+ on R3 aggregation, 15 μM R3, 3.8 μM heparin was mixed in the presence or the absence of 3.8 μM Cu^2+ in 50 mM Hepes buffer (pH 7.4). Then, 10 μM 4GA/2GA/4ME/GA was added to the solution. After 3 h incubation, 10 μl of each solution was applied on a carbon support membrane, followed by 10 μl of 2% uranyl acetate, and dried at room temperature. The operation was carried out on transmission electron microscope (JEM-2100, provieded by JEOL).

tau peptide R3 = molecular target: T2, tau peptide R3 (Homo sapiens, UniProt P10636); experiment: Endogenous (tyrosine) fluorescence quenching of tau peptide R3; format: binding; conditions: for n (binding sites): Hill equation
T2 construct: R3 (^306VQIVYK PVDLSK VTSKCG SLGNIH HKPGGG Q^336) and rabbit anti-tau antibody were purchased from MuJin; purchased MuJin
T2 sequence (P10636 623-653 limits assumed): as above
Procedure: The affinity of the synthetic compounds toward tau peptide was evaluated by endogenous fluorescence quenching experiment. The N-galloyl-substituted azacrown (ligand) can quench the endogenous fluorescence of tyrosine residues (306–310, VQIVY) on R3 peptide chain (receptor), if there exists a definite interaction between the ligand and the receptor. With titration of 4GA or 2GA (ligands) into the solution of tau peptide R3 (receptors), the endogenous fluorescence (at 310 nm) of tyrosine residues on R3 peptide chain was gradually quenched (data provided in ESI, Fig. S11). The data were then fitted by the Stern−Volmer formula to give the quenching constants (Kb) (Fig. S12). The quenching constants (Kb) and binding sites (n) of 4GA or 2GA to R3 peptide in the temperatures 25 °C and 37 °C are presented in Table 1.
The structural changes of R3 protein upon binding to 4GA/2GA/GA was documented by fluorescence spectroscopy. Briefly, various concentrations of 4GA/2GA/GA (0, 5, 10, 15, 20, 30, 40, 60, or 80 μM) were added to the 15 μM R3 protein in 50 mM Tris–HCl buffer (pH 7.4) in a 10-mm quartz cuvette. The measurement was carried out by Hitachi F-7000 equipped with a circulating water bath at 25 and 37 °C. The fluorescence spectra of R3 protein were documented from 290 nm to 380 nm with 275 nm excitation. The widths of excitation and emission slit were set at 5 and 10 nm, respectively.
The Stern–Volmer (Formula 4.1) was used to determine the quenching mechanism, either static or dynamic quenching:(4.1) F0/F=1+KSV[Q] where F0 and F are the fluorescence intensity without and with quencher, [Q] means the concentration of quencher, and Ksv is the Stern–Volmer constant.
Furthermore, the binding constant (Kb) and number of the binding sites (n) of quencher on R3 protein could be calculated by Hill (Equation 4.2):(4.2) log[F0−F/F]=logKb+nlog[Q]
The tyrosine fluorescence quenching experiment was carried out to determine the binding ability between inhibitors and R3 protein. […] Furthermore, this experiment is reasonable given the relatively weak fluorescence intensity of 4GA, 2GA, and GA (Figure S10). With titration of inhibitors into the solution of R3 protein, the fluorescence of tyrosine residues was gradually quenched in two temperatures of 25°C and 37°C, implying that 4GA or 2GA can interact with R3.
Fluorescence quenching usually proceeds through either dynamic quenching or static quenching. Dynamic quenching refers to the contact process between excited fluorophore and quencher, while static quenching refers to the formation of fluorophore-quencher complexes. A series of data processing about the fluorescence change of tyrosine residues at 25°C and 37°C was utilized to figure out the binding constant. Compared to the standard Stern-Volmer curves, a minor positive deviation from linearity was observed by plotting F0/F versus concentration, indicating a mixture of dynamic and static patterns (Figure S11). Furthermore, the Hill equation was used to calculate the quenching constant and binding sites of inhibitors on R3 protein (Figure S12).

Compound | SK-N-SH cells dead (SK-N-SH cells [1]) [%] | cytotoxicity (cell viability) (SK-N-SH cells [1]; 24 h) | rescue of cell viability against R3 aggregates or Cu2+ (SK-N-SH cells [2]) | R3 fibril morphology (TEM) (R3 fibrils; 10 μM inhibitor) | n (binding sites) (tau peptide R3; 25 °C) | n (binding sites) (tau peptide R3; 37 °C) | cytotoxicity (survival rate of SK-N-SH cells) (SK-N-SH cells [1]; dose-dependent test, 24 h) | R3 fibril morphology (TEM) (R3 fibrils; even at high concentrations) | binding ability / interaction with R3 (tau peptide R3; 25 °C and 37 °C)
O=C(c1cc(O)c(O)c(O)c1)N1CCN(C(=O)c2cc(O)c(O)c(O)c2)CCN(C(=O)c2cc(O)c(O)c(O)c2)CCN(C(=O)c2cc(O)c(O)c(O)c2)CC1 [4GA, (1,4,7,10-tetraazacyclododecane-1,4,7,10-tetrayl)tetrakis((3,4,5-trihydroxyphenyl)methanone)] | 40.5 | insignificant cytotoxicity | dramatically elevates the cell viability | smaller numbers of short R3 filaments | 1.33 ± 0.05 | 1.54 ± 0.07 | – | – | –
CN1CCN(C)CCN(C)CCN(C)CC1 [4ME, 1,4,7,10-tetramethyl-1,4,7,10-tetraazacyclododecane, reference compound] | – | – | only a limited rescue ability | – | – | – | negligible | – | –
O=C(O)c1cc(O)c(O)c(O)c1 [GA, gallic acid, reference compound] | – | – | only a limited rescue ability | – | – | – | – | could hardly change the number and length of R3 fibrils | no significant interaction between GA and R3; also recorded: negligible binding ability
CN1CCN(C(=O)c2cc(O)c(O)c(O)c2)CCN(C)CCN(C(=O)c2cc(O)c(O)c(O)c2)CC1 [2GA, (4,10-dimethyl-1,4,7,10-tetraazacyclododecane-1,7-diyl)bis((3,4,5-trihydroxyphenyl)methanone)] | 34.2 | insignificant cytotoxicity | dramatically elevates the cell viability | smaller numbers of short R3 filaments | 1.14 ± 0.05 | 1.32 ± 0.04 | – | – | –
